Assay [1] has as its target T1, HSP90α protein (Homo sapiens, UniProt P07900).
T1 construct: purchased BPS Bioscience #50298
Kind of assay: HSP90α-binding FP (BODIPY) assay. The settings on record: FP competition with BODIPY-labeled RNK04010. Summed up:
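Fluorescence polarization measured competition with N-terminal human HSP90α, using either FITC-geldanamycin or BODIPY-labelled triazolone RNK04010 as tracer (5 nM final each). Compounds were tested in 2.5-fold dilutions from 20 μM to 5.2 nM, with incubation at 25 °C for 120 min (FITC) or 300 min (BODIPY).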

The subject of assay [2] is MV-4-11 human acute myeloid leukemia. Kind of assay: MV-4-11 CCK-8 proliferation assay. It is filed as cell-based. The settings on record: MV-4-11 cells, 72 hr. Put shortly:
(§1)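 Lines were maintained according to ATCC guidance. Compounds were then applied as a 3-fold titration from 20 μM to 1.02 nM, and proliferation was measured by CCK-8 absorbance, normalised to DMSO controls minus a no-cell blank.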
(Formazan colour is commonly taken as a measure of viable cells.)

The subject of assay [3] is U-87 MG human glioblastoma. Kind of assay: U87 MG CCK-8 proliferation assay. Format: cell-based. The settings on record: U-87 MG cells, read-out: U87MG CCK-8. Summed up:
as §1

Read-outs that look alike come from different tables or passages of the source.

In assay [1], “(1R,4R)-4-((2-carbamoyl-5-(6,6-dimethyl-4-oxo-3-(trifluoromethyl)-4,5,6,7-tetrahydro-1H-indazol-1-yl)phenyl)amino)cyclohexyl 4-(1-(1-(3-ethoxy-4-((5-methyl-11-(methylsulfonyl)-6-oxo-6,11-dihydro-5H-benzo[e]pyrimido[5,4-b][1,4]diazepin-2-yl)amino)phenyl)piperidine-4-carbonyl)piperidin-4-yl)piperazine-1-carboxylate [Compound 118]” returned an IC50 of over 1000 nM. Besides, the EC50 was 100 to 1000 nM in assay [2] and over 1000 nM in assay [3] (72 hr).

`CCOc1cc(N2CCC(C(=O)N3CCN(Cc4ccc(-n5c(O)nnc5-c5cc(CC)c(O)cc5O)cc4)CC3)CC2)ccc1Nc1ncc2c(n1)N(S(C)(=O)=O)c1ccccc1C(=O)N2C` [Compound 086, 2-((2-ethoxy-4-(4-(4-(4-(3-(5-ethyl-2,4-dihydroxyphenyl)-5-hydroxy-4H-1,2,4-triazol-4-yl)benzyl)piperazine-1-carbonyl)piperidin-1-yl)phenyl)amino)-5-methyl-11-(methylsulfonyl)-5,11-dihydro-6H-benzo[e]pyrimido[5,4-b][1,4]diazepin-6-one]: in assay [1], the IC50 is under 100 nM. Further, the EC50 in assay [2] (Homo sapiens, MV4-11) was under 100 nM; in assay [3] (Homo sapiens, U-87 MG, 72 h), 100 to 1000 nM.

As for `CCOc1cc(N2CCC(C(=O)N3CCN(Cc4ccc(-n5c(O)nnc5-c5cc(C(C)C)c(O)cc5O)cc4C(F)(F)F)CC3)CC2)ccc1Nc1ncc2c(n1)N(S(C)(=O)=O)c1ccccc1C(=O)N2C` [Compound 072, 2-((4-(4-(4-(4-(3-(2,4-dihydroxy-5-isopropylphenyl)-5-hydroxy-4H-1,2,4-triazol-4-yl)-2-(trifluoromethyl)benzyl)piperazine-1-carbonyl)piperidin-1-yl)-2-ethoxyphenyl)amino)-5-methyl-11-(methylsulfonyl)-5,11-dihydro-6H-benzo[e]pyrimido[5,4-b][1,4]diazepin-6-one], the IC50 in assay [1] was in the range of 100 to 1000 nM. Also, the EC50 in assay [2] (Homo sapiens, MV4-11) was under 100 nM; in assay [3] (Homo sapiens, U-87 MG, 72 h), 100 to 1000 nM.

With `CCOc1cc(N2CCC(C(=O)N3CCC(CN4CCN(C(=O)CNC(=O)O[C@H]5CC[C@H](Nc6cc(-n7nc(C(F)(F)F)c8c7CC(C)(C)CC8=O)ccc6C(N)=O)CC5)CC4)CC3)CC2)ccc1Nc1ncc2c(n1)N(S(C)(=O)=O)c1ccccc1C(=O)N2C` [Compound 119, (1R,4R)-4-((2-carbamoyl-5-(6,6-dimethyl-4-oxo-3-(trifluoromethyl)-4,5,6,7-tetrahydro-1H-indazol-1-yl)phenyl)amino)cyclohexyl (2-(4-((1-(1-(3-ethoxy-4-((5-methyl-11-(methylsulfonyl)-6-oxo-6,11-dihydro-5H-benzo[e]pyrimido[5,4-b][1,4]diazepin-2-yl)amino)phenyl)piperidine-4-carbonyl)piperidin-4-yl)methyl)piperazin-1-yl)-2-oxoethyl)carbamate], the IC50 in assay [1] was over 1000 nM. For the same molecule, the EC50 in assay [2] (Homo sapiens, MV4-11) was under 100 nM; in assay [3] (Homo sapiens, U-87 MG, 72 h), over 1000 nM.

As to `CCOc1cc(N2CCC(C(=O)NCC3CCN(C(=O)C4CCN(Cc5ccc(-n6c(O)nnc6-c6cc(CC)c(O)cc6O)cc5)CC4)CC3)CC2)ccc1Nc1ncc2c(n1)N(S(C)(=O)=O)c1ccccc1C(=O)N2C` [Compound 079, 1-(3-ethoxy-4-((5-methyl-11-(methylsulfonyl)-6-oxo-6,11-dihydro-5H-benzo[e]pyrimido[5,4-b][1,4]diazepin-2-yl)amino)phenyl)-N-((1-(1-(4-(3-(5-ethyl-2,4-dihydroxyphenyl)-5-hydroxy-4H-1,2,4-triazol-4-yl)benzyl)piperidine-4-carbonyl)piperidin-4-yl)methyl)piperidine-4-carboxamide], the IC50 in assay [1] is under 100 nM. Moreover, the EC50 in assay [2] (Homo sapiens, MV4-11) was 100 to 1000 nM; in assay [3] (Homo sapiens, U-87 MG, 72 h), over 1000 nM.

In turn, `CCOc1cc(N2CCC(C(=O)NCCOCCOCCNC(=O)O[C@H]3CC[C@H](Nc4cc(-n5nc(C(F)(F)F)c6c5CC(C)(C)CC6=O)ccc4C(N)=O)CC3)CC2)ccc1Nc1ncc2c(n1)N(C)c1ccccc1C(=O)N2C` [Compound 120, (1R,4R)-4-((2-carbamoyl-5-(6,6-dimethyl-4-oxo-3-(trifluoromethyl)-4,5,6,7-tetrahydro-1H-indazol-1-yl)phenyl)amino)cyclohexyl (2-(2-(2-(1-(4-((5,11-dimethyl-6-oxo-6,11-dihydro-5H-benzo[e]pyrimido[5,4-b][1,4]diazepin-2-yl)amino)-3-ethoxyphenyl)piperidine-4-carboxamido)ethoxy)ethoxy)ethyl)carbamate] gave an IC50 in assay [1] of over 1000 nM. Besides, the EC50 is 100 to 1000 nM in assay [2] (Homo sapiens, MV4-11) and over 1000 nM in assay [3] (Homo sapiens, U-87 MG, 72 h).

For `CCOc1cc(N2CCC(C(=O)NCCCNC(=O)O[C@H]3CC[C@H](Nc4cc(-n5nc(C(F)(F)F)c6c5CC(C)(C)CC6=O)ccc4C(N)=O)CC3)CC2)ccc1Nc1ncc2c(n1)N(S(C)(=O)=O)c1ccccc1C(=O)N2C` [Compound 095, (1R,4R)-4-((2-carbamoyl-5-(6,6-dimethyl-4-oxo-3-(trifluoromethyl)-4,5,6,7-tetrahydro-1H-indazol-1-yl)phenyl)amino)cyclohexyl (3-(1-(3-ethoxy-4-((5-methyl-11-(methylsulfonyl)-6-oxo-6,11-dihydro-5H-benzo[e]pyrimido[5,4-b][1,4]diazepin-2-yl)amino)phenyl)piperidine-4-carboxamido)propyl)carbamate], in assay [1], the IC50 is over 1000 nM. Further, the EC50 in assay [2] (Homo sapiens, MV4-11) was 100 to 1000 nM; in assay [3] (Homo sapiens, U-87 MG, 72 h), over 1000 nM.

As for `CCOc1cc(N2CCC(C(=O)N3CCC(Cc4ccc(CN(C)Cc5ccc(-n6c(C(=O)NCC(F)(F)F)nnc6-c6cc(C)c(O)cc6O)cc5)cc4)CC3)CC2)ccc1Nc1ncc2c(n1)N(S(C)(=O)=O)c1ccccc1C(=O)N2C` [Compound 100, 5-(2,4-dihydroxy-5-methylphenyl)-4-(4-(((4-((1-(1-(3-ethoxy-4-((5-methyl-11-(methylsulfonyl)-6-oxo-6,11-dihydro-5H-benzo[e]pyrimido[5,4-b][1,4]diazepin-2-yl)amino)phenyl)piperidine-4-carbonyl)piperidin-4-yl)methyl)benzyl)(methyl)amino)methyl)phenyl)-N-(2,2,2-trifluoroethyl)-4H-1,2,4-triazole-3-carboxamide], in assay [1], the IC50 is over 1000 nM. Further, the EC50 was 100 to 1000 nM in assay [2] (Homo sapiens, MV4-11) and over 1000 nM in assay [3] (Homo sapiens, U-87 MG, 72 h).

Turning to `CCOc1cc(N2CCC(C(=O)NCc3ccc(-n4c(O)nnc4-c4cc(C(C)C)c(O)cc4O)cc3)CC2)ccc1Nc1ncc2c(n1)N(S(C)(=O)=O)c1ccccc1C(=O)N2C` [Compound 080, N-(4-(3-(2,4-dihydroxy-5-isopropylphenyl)-5-hydroxy-4H-1,2,4-triazol-4-yl)benzyl)-1-(3-ethoxy-4-((5-methyl-11-(methylsulfonyl)-6-oxo-6,11-dihydro-5H-benzo[e]pyrimido[5,4-b][1,4]diazepin-2-yl)amino)phenyl)piperidine-4-carboxamide], the IC50 in assay [1] lay in the range of 100 to 1000 nM. Besides, the EC50 was under 100 nM in assay [2] (Homo sapiens, MV4-11) and over 1000 nM in assay [3] (Homo sapiens, U-87 MG, 72 h).

As usually defined, the IC50 is the midpoint of a concentration-inhibition curve. High values mean lower potency, low ones higher potency.

The record behind these values is patent US20240124460A1, “METHODS AND COMPOSITIONS FOR TARGETED PROTEIN DEGRADATION” (Ranok Therapeutics (Hangzhou) Co. Ltd., priority 2020, published 2024).
